The values that follow come from patent US9040545B2, “Heterocyclyl pyrazolopyrimidine analogues as selective JAK inhibitors” (Cellzome Limited, priority 2010, dated 2015).

Where only a bound is given, the exact number is not on record here.

In this assay the target is T1, Aurora B (Homo sapiens, UniProt Q96GD4).
T1 construct: cell lysates from Jurkat cells (ATCC TIB-152) used; endogenous in cells; host or cells: Jurkat cells (ATCC TIB-152), treated with pervanadate
The assay can be described thus: Kinobeads assay, Aurora B. The class given is binding. The settings on record: for IC50: lysate of pervanadate-treated Jurkat cells, read-out: Inhibition values (IC50) Aur B. As to the method: The compounds of the present invention as described in the previous examples were tested in a Kinobeads™ assay as described for ZAP-70 (WO-A 2007/137867). Briefly, test compounds (at various concentrations) and the affinity matrix with the immobilized aminopyrido-pyrimidine ligand 24 were added to cell lysate aliquots and allowed to bind to the proteins in the lysate sample. After the incubation time the beads with captured proteins were separated from the lysate. Bound proteins were then eluted and the presence of JAK2 and JAK3 was detected and quantified using specific antibodies in a dot blot procedure and the Odyssey infrared detection system. Dose response curves for individual kinases were generated and IC50 values calculated. Kinobeads™ assays for ZAP-70 (WO-A 2007/137867) and for kinase selectivity profiling (WO-A 2006/134056) have been previously described.
The affinity matrix was washed two times with 15 mL of 1×DP buffer containing 0.2% NP40 (IGEPAL® CA-630, Sigma, #I3021) and then resuspended in 1×DP buffer containing 0.2% NP40 (3% beads slurry).
5×DP buffer 250 mM Tris-HCl pH 7.4, 25% Glycerol, 7.5 mM MgCl2, 750 mM NaCl, 5 mM Na3VO4; filter the 5×DP buffer through a 0.22 μm filter and store in aliquots at −80° C. The 5×DP buffer is diluted with H2O to 1×DP buffer containing 1 mM DTT and 25 mM NaF.
Stock solutions of test compounds were prepared in DMSO. In a 96 well plate 30 μL solution of diluted test compounds at 5 mM in DMSO were prepared. Starting with this solution a 1:3 dilution series (9 steps) was prepared. For control experiments (no test compound) a buffer containing 2% DMSO was used.
Cell lysate (approximately 50 mg protein per plate) was thawed in a water bath at room temperature and then stored on ice. To the thawed cell lysate 1×DP 0.8% NP40 buffer containing protease inhibitors (1 tablet for 25 mL buffer; EDTA-free protease inhibitor cocktail; Roche Diagnostics 1873580) was added in order to reach a final protein concentration of 10 mg/mL total protein. The diluted cell lysate was stored on ice. Mixed Molt4/Ramos lysate was prepared by combining one volume of Molt4 lysate and two volumes of Ramos lysate (ratio 1:2).
To a 96 well filter plate (Multiscreen HTS, BV Filter Plates, Millipore #MSBVN1250) were added per well: 100 μL affinity matrix (3% beads slurry), 3 μL of compound solution, and 50 μL of diluted lysate. Plates were sealed and incubated for 3 hours in a cold room on a plate shaker (Heidolph tiramax 1000) at 750 rpm. Afterwards the plate was washed 3 times with 230 μL washing buffer (1×DP 0.4% NP40). The filter plate was placed on top of a collection 1 plate (Greiner bio-one, PP-microplate 96 well V-shape, 65120) and the beads were then eluted with 20 μL of sample buffer (100 mM Tris, pH 7.4, 4% SDS, 0.00025% bromophenol blue, 20% glycerol, 50 mM DTT). The eluate was frozen quickly at −80° C. and stored at −20° C.
The kinases in the eluates were detected and quantified by spotting on nitrocellulose membranes and using a first antibody directed against the kinase of interest and a fluorescently labelled secondary antibody (anti-rabbit IRDye™ antibody 800 (Licor, #926-32211). The Odyssey Infrared Imaging system from LI-COR Biosciences (Lincoln, Nebr., USA) was operated according to instructions provided by the manufacturer (Schutz-Geschwendener et al, 2004. Quantitative, two-color Western blot detection with infrared fluorescence. Published May 2004 by LI-COR Biosciences, www.licor.com).
After spotting of the eluates the nitrocellulose membrane (BioTrace NT; PALL, #BTNT30R) was first blocked by incubation with Odyssey blocking buffer (LICOR, 927-40000) for 1 hour at room temperature. Blocked membranes were then incubated for 16 hours at the temperature shown in Table 5 with the first antibody diluted in Odyssey blocking buffer (LICOR #927-40000). Afterwards the membrane was washed twice for 10 minutes with PBS buffer containing 0.2% Tween 20 at room temperature. […]

T1 sequence (Q96GD4 whole entry): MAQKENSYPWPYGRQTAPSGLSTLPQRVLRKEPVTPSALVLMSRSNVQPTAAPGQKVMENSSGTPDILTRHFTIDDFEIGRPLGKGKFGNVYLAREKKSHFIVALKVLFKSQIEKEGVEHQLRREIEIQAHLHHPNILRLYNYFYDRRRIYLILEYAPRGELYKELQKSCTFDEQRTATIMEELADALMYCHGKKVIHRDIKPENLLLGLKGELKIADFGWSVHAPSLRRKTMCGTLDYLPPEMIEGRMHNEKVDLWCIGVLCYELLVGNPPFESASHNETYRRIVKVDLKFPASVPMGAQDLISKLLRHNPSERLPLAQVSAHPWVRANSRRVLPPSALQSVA

With `C[C@@H]1COCCN1c1cccc(Cn2ncc3cnc(Nc4cnn(C)c4)nc32)n1` [Example 1, (R)—N-(1-Methyl-1H-pyrazol-4-yl)-1-((6-(3-methylmorpholino)pyridin-2-yl)methyl)-1H-pyrazolo[3,4-d]pyrimidin-6-amine], the “JAK3/AurB Fold Selectivity” value was 10-50 Fold and the IC50 (in general, the point on the concentration scale where inhibition reaches its midpoint) is 1 to 10 µM.

Turning to `Cn1cc(Nc2ncc3cnn(Cc4cccc(N5CCOCC5)c4)c3n2)cn1` [Example 2, N-(1-Methyl-1H-pyrazol-4-yl)-1-(3-morpholinobenzyl)-1H-pyrazolo[3,4-d]pyrimidin-6-amine], the “JAK3/AurB Fold Selectivity” value was greater than 50 Fold and the IC50 is 1 to 10 µM.

For the molecule `Cn1cc(Nc2ncc3cnn(Cc4cccc(N5CCOCC5)n4)c3n2)cn1` [Example 3, N-(1-Methyl-1H-pyrazol-4-yl)-1-((6-morpholinopyridin-2-yl)methyl)-1H-pyrazolo[3,4-d]pyrimidin-6-amine], the “JAK3/AurB Fold Selectivity” value is given as 10-50 Fold and the IC50 is 0.1 to 1 µM.

As for `CN(C)CCCn1cc(Nc2ncc3cnn(Cc4cccc(N5CCOCC5)c4)c3n2)cn1` [Example 4, N-(1-(3-(Dimethylamino)propyl)-1H-pyrazol-4-yl)-1-(3-morpholinobenzyl)-1H-pyrazolo[3,4-d]pyrimidin-6-amine], the “JAK3/AurB Fold Selectivity” value was greater than 50 Fold and the IC50 fell in the range of 0.1 to 1 µM.

Consider `OCCn1cc(Nc2ncc3cnn(Cc4cccc(N5CCOCC5)c4)c3n2)cn1` [Example 5, 2-(4-((1-(3-Morpholinobenzyl)-1H-pyrazolo[3,4-d]pyrimidin-6-yl)amino)-1H-pyrazol-1-yl)ethanol], for which the “JAK3/AurB Fold Selectivity” value was greater than 50 Fold and the IC50 lay in the range of 0.1 to 1 µM.

In the case of `Cn1cc(Nc2ncc3cnn(Cc4cccc(C(=O)N5CCOCC5)c4)c3n2)cn1` [Example 6, (3-((6-((1-Methyl-1H-pyrazol-4-yl)amino)-1H-pyrazolo[3,4-d]pyrimidin-1-yl)methyl)phenyl)(morpholino)methanone], the “JAK3/AurB Fold Selectivity” value is greater than 50 Fold and the IC50 was in the range of 1 to 10 µM.

Turning to `Cn1cc(Nc2ncc3cnn(Cc4cccc(CN5CCOCC5)c4)c3n2)cn1` [Example 7, N-(1-Methyl-1H-pyrazol-4-yl)-1-(3-(morpholinomethyl)benzyl)-1H-pyrazolo[3,4-d]pyrimidin-6-amine], the “JAK3/AurB Fold Selectivity” value was 10-50 Fold and the IC50 is 0.1 to 1 µM.

As to `Cn1cc(Nc2ncc3cnn(Cc4cccc(N5CCCCC5)c4)c3n2)cn1` [Example 8, N-(1-Methyl-1H-pyrazol-4-yl)-1-(3-(piperidin-1-yl)benzyl)-1H-pyrazolo[3,4-d]pyrimidin-6-amine], the “JAK3/AurB Fold Selectivity” value is given as 10-50 Fold and the IC50 was in the range of 1 to 10 µM.

`Cn1cc(Nc2ncc3cnn(Cc4cccc(C5CCOCC5)c4)c3n2)cn1` [Example 9, N-(1-Methyl-1H-pyrazol-4-yl)-1-(3-(tetrahydro-2H-pyran-4-yl)benzyl)-1H-pyrazolo[3,4-d]pyrimidin-6-amine]: the “JAK3/AurB Fold Selectivity” value is reported as 10-50 Fold and the IC50 fell in the range of 0.1 to 1 µM.

In the case of `CN1CCN(c2cccc(Cn3ncc4cnc(Nc5cnn(C)c5)nc43)c2)CC1` [Example 10, N-(1-Methyl-1H-pyrazol-4-yl)-1-(3-(4-methylpiperazin-1-yl)benzyl)-1H-pyrazolo[3,4-d]pyrimidin-6-amine], the “JAK3/AurB Fold Selectivity” value is recorded as 10-50 Fold and the half-inhibitory concentration (IC50) was 0.1 to 1 µM.

Turning to `Cc1c(Cn2ncc3cnc(Nc4cnn(C)c4)nc32)cccc1N1CCOCC1` [Example 11, N-(1-Methyl-1H-pyrazol-4-yl)-1-(2-methyl-3-morpholinobenzyl)-1H-pyrazolo[3,4-d]pyrimidin-6-amine], the “JAK3/AurB Fold Selectivity” value is on record as 10-50 Fold and the IC50 lay in the range of 0.1 to 1 µM.

With `CNC(=O)Cn1cc(Nc2ncc3cnn(Cc4cccc(N5CCOCC5)c4)c3n2)cn1` [Example 12, N-Methyl-2-(4-((1-(3-morpholinobenzyl)-1H-pyrazolo[3,4-d]pyrimidin-6-yl)amino)-1H-pyrazol-1-yl)acetamide], the “JAK3/AurB Fold Selectivity” value was 10-50 Fold and the IC50 was 0.1 to 1 µM.

Consider `CCOC(=O)C1CCCN(c2cccc(Cn3ncc4cnc(Nc5cnn(C)c5)nc43)c2)C1` (stereo not drawn) [Example 13, Ethyl 1-(3-((6-((1-methyl-1H-pyrazol-4-yl)amino)-1H-pyrazolo[3,4-d]pyrimidin-1-yl)methyl)phenyl)piperidine-3-carboxylate], for which the “JAK3/AurB Fold Selectivity” value is on record as 10-50 Fold and the IC50 is no less than 10 µM.

As to `NC(=O)CCn1cc(Nc2ncc3cnn(Cc4cccc(N5CCOCC5)c4)c3n2)cn1` [Example 14, 3-(4-((1-(3-Morpholinobenzyl)-1H-pyrazolo[3,4-d]pyrimidin-6-yl)amino)-1H-pyrazol-1-yl)propanamide], the “JAK3/AurB Fold Selectivity” value was 10-50 Fold and the IC50 was in the range of 0.1 to 1 µM.

For `Cn1cc(Nc2ncc3cnn(Cc4cc(N5CCOCC5)ccc4F)c3n2)cn1` [Example 15, 1-(2-Fluoro-5-morpholinobenzyl)-N-(1-methyl-1H-pyrazol-4-yl)-1H-pyrazolo[3,4-d]pyrimidin-6-amine], the “JAK3/AurB Fold Selectivity” value is given as 10-50 Fold and the concentration for half-maximal inhibition (IC50) lay in the range of 1 to 10 µM.

For `CN(C)C(=O)CCn1cc(Nc2ncc3cnn(Cc4cccc(N5CCOCC5)c4)c3n2)cn1` [Example 16, N,N-Dimethyl-3-(4-((1-(3-morpholinobenzyl)-1H-pyrazolo[3,4-d]pyrimidin-6-yl)amino)-1H-pyrazol-1-yl)propanamide], the “JAK3/AurB Fold Selectivity” value was 10-50 Fold and the IC50 was 0.1 to 1 µM.

On to `Cn1cc(Nc2ncc3cnn(Cc4c(F)c(F)cc(N5CCOCC5)c4F)c3n2)cn1` [Example 17, N-(1-Methyl-1H-pyrazol-4-yl)-1-(2,3,6-trifluoro-5-morpholinobenzyl)-1H-pyrazolo[3,4-d]pyrimidin-6-amine], for which the “JAK3/AurB Fold Selectivity” value was 10-50 Fold and the IC50 is 0.1 to 1 µM.

`OCCCn1cc(Nc2ncc3cnn(Cc4cccc(N5CCOCC5)c4)c3n2)cn1` [Example 18, 3-(4-((1-(3-Morpholinobenzyl)-1H-pyrazolo[3,4-d]pyrimidin-6-yl)amino)-1H-pyrazol-1-yl)propan-1-ol]: the “JAK3/AurB Fold Selectivity” value is greater than 50 Fold and the 50% inhibitory concentration (IC50) lay in the range of 0.1 to 1 µM.

Regarding `Cn1cc(Nc2ncc3cnn(Cc4cccc(N5CCC(F)(F)CC5)c4)c3n2)cn1` [Example 19, 1-(3-(4,4-Difluoropiperidin-1-yl)benzyl)-N-(1-methyl-1H-pyrazol-4-yl)-1H-pyrazolo[3,4-d]pyrimidin-6-amine], the “JAK3/AurB Fold Selectivity” value was 10-50 Fold and the IC50 is no less than 10 µM.

Turning to `O=C(CCn1cc(Nc2ncc3cnn(Cc4cccc(N5CCOCC5)c4)c3n2)cn1)N1CCCCC1` [Example 20, 3-(4-((1-(3-Morpholinobenzyl)-1H-pyrazolo[3,4-d]pyrimidin-6-yl)amino)-1H-pyrazol-1-yl)-1-(piperidin-1-yl)propan-1-one], the “JAK3/AurB Fold Selectivity” value is listed as greater than 50 Fold and the half-maximal inhibitory concentration (IC50) was 1 to 10 µM.

Take `Cn1cc(Nc2ncc3cnn(Cc4cccc(N5CCOCC5)c4F)c3n2)cn1` [Example 21, 1-(2-Fluoro-3-morpholinobenzyl)-N-(1-methyl-1H-pyrazol-4-yl)-1H-pyrazolo[3,4-d]pyrimidin-6-amine]: the “JAK3/AurB Fold Selectivity” value is recorded as greater than 50 Fold and the IC50 was in the range of 1 to 10 µM.
